Reference: patent publication US4423221A, “7-Carboethoxy-morphinan-6-one compounds” (SISA Pharmaceutical Laboratories, Inc., priority 1982, dated 1983)

Assays:
rats = assay: Narcotic antagonist activity, modified rat tail flick test (against ED80 dose of morphine); format: in vivo, male albino Wistar rats; conditions: ip, test drug intraperitoneally, ED80 dose of morphine s.c. 10 min later, retest 20 min after morphine, read-out: AD50 (dose required to inhibit the effect of morphine by 50%)
Method: (B) Narcotic antagonist activity in rats (modified rat tail flick test).
Evaluation of Narcotic Antagonist Activity
The narcotic antagonist effect of the test compound was determined by a modification of the rat tail flick procedure of Harris and Pierson (J. Pharmacol. Exp. Ther., 143:141 [1964]).
Male albino Wistar rats (100-120 g) were used for this study. A rat's tail is so placed so as to cover a photocell. Heat is applied by a lamp in a reflector with a timer being connected to the lamp and photocell so that the timer goes on when the light is turned on and is turned off when the photocell is uncovered. A rheostat, incorporated into a heating lamp, is used to adjust the intensity of the light falling on the tail of the rat such that the rat's control reaction time is from 2 to 4 seconds. Animals with a control reaction time outside this range are rejected. The rheostat adjustment is made only if a significant proportion (1 out of every 10 rats) of the reaction times are outside the range of 2 to 4 seconds. Groups of 5 rats were used, and 2 control times were determined at 60 and 30 minutes prior to […] injection of the drug.
At least 30 minutes after the last control run the test drug was given intraperitoneally. This was followed 10 minutes later by an ED80 dose of morphine subcutaneously. The animals were retested at 20 minutes after the morphine injection. Control animals were given vehicle and morphine only. The data were calculated as follows: [formula]
The data were plotted on log-probit paper and AD50 values, i.e., the dose required to inhibit the effect of morphine by 50% within 95% confidence limits, were determined by the method of Lichtfield and Wilcoxon.

mice = assay: Acetic acid mouse writhing test (analgesic effects); format: in vivo, male CD-1 mice; conditions: subcutaneous, 0.5% acetic acid i.p. 15 min post drug, writhes counted over 20 min; for ED50: Mus musculus, sc, read-out: ED50 (dose required to reduce the number of writhes by 50%)
Method: (A) Analgesic effects upon mice (acetic acid writhing test).
Acetic Acid Mouse Writhing Test
Analgesic effects of the test compounds were determined in mice by use of the acetic acid writhing test described by B. A. Whittle, Brit. J. Pharmacol., 22:246 (1964). In this test, at least 3 groups of 5 male CD-1 mice each were given subcutaneous doses of the test drug dissolved in distilled water. In all cases, 0.4 milliliters of a 0.5% V/V acetic acid in distilled water solution was administered intraperitoneally 15 minutes post drug. The number of writhes in a 20 minute interval beginning 5 minutes after the acetic acid injection were determined and compared with the number of writhes in a control group which had received only acetic acid.
Percent inhibition of writhing was calculated as: [formula]
The ED50 dose, i.e., the dose required to reduce the number of writhes by 50%, was determined graphically from a plot of % inhibition as a probit verus log dose. Confidence limits of 95% were calculated on the basis of those results falling in the range 16-84% inhibition. See Lichtfield, J. T. and Wilcoxon, F., J. Pharmacol. Exp. Ther., 96, 99-113 (1949).

CCOC(=O)C1C[C@H]2[C@H]3Cc4ccc(OC)cc4[C@@]2(CCN3CC2CC2)CC1=O (stereo partly drawn) [TR-5299, 7-carboethoxy-17-cyclopropylmethyl-3-methoxy-morphinan-6-one]
ED50 (rats): 13 mg/kg
ED50 (mice): > 10 mg/kg

CCOC(=O)C1CC2C3Cc4ccc(OC)cc4C2(CCN3CC2CCC2)CC1=O (stereo not drawn) [TR-5300, 7-carboethoxy-17-cyclobutylmethyl-3-methoxy-morphinan-6-one]
ED50 (rats): 13 mg/kg
ED50 (dose required to reduce the number of writhes by 50%) (mice): IA 10.0

CCOC(=O)C1C[C@H]2[C@H]3Cc4ccc(O)cc4[C@@]2(CCN3CC2CCC2)CC1=O (stereo partly drawn) [TR-5307, 7-carboethoxy-17-cyclobutylmethyl-3-hydroxy-morphinan-6-one]
ED50 (rats): > 10 mg/kg
ED50 (mice): 1.15 mg/kg

CCOC(=O)C1C[C@H]2[C@H]3Cc4ccc(O)cc4[C@@]2(CCN3CC2CC2)CC1=O (stereo partly drawn) [TR-5308, 7-carboethoxy-17-cyclopropylmethyl-3-hydroxy-morphinan-6-one]
ED50 (rats): 3.12 mg/kg
ED50 (mice): 4.9 mg/kg

CCOC(=O)C1C[C@H]2[C@H]3Cc4ccc(OC)cc4[C@@]2(CCN3C)CC1=O (stereo partly drawn) [TR-5318, 7-carboethoxy-3-methoxy-17-methylmorphinan-6-one]
ED50 (mice): 4.6 mg/kg

CCOC(=O)C1C[C@H]2[C@H]3Cc4ccc(O)cc4[C@@]2(CCN3C)CC1=O (stereo partly drawn) [TR-5320, 7-carboethoxy-3-hydroxy-17-methylmorphinan-6-one]
ED50 (rats): 3.6 mg/kg
ED50 (mice): 0.72 mg/kg

CCOC(=O)C1C[C@@H]2[C@H]3Cc4ccc(OC)cc4[C@@]2(CCN3C)CC1=O (stereo partly drawn) [TR-5336, 7-carboethoxy-3-methoxy-17-methyl-14α-morphinan-6-one]
ED50 (mice): > 10 mg/kg

CCOC(=O)C1C[C@@H]2[C@H]3Cc4ccc(OC)cc4[C@@]2(CCN3CC2CC2)CC1=O (stereo partly drawn) [TR-5337, 7-carboethoxy-17-cyclopropylmethyl-3-methoxy-14α-morphinan-6-one]
ED50 (rats): > 10 mg/kg
ED50 (dose required to reduce the number of writhes by 50%) (mice): IA 10.0

CCOC(=O)C1C[C@@H]2[C@H]3Cc4ccc(O)cc4[C@@]2(CCN3C)CC1=O (stereo partly drawn) [TR-5338, 7-carboethoxy-3-hydroxy-17-methyl-14α-morphinan-6-one]
ED50 (rats): 0.7 mg/kg
ED50 (mice): 0.6 mg/kg

CCOC(=O)C1C[C@@H]2[C@H]3Cc4ccc(O)cc4[C@@]2(CCN3CC2CC2)CC1=O (stereo partly drawn) [TR-5339, 7-carboethoxy-17-cyclopropylmethyl-3-hydroxy-14α-morphinan-6-one]
ED50 (rats): 2.54 mg/kg
ED50 (mice): 3.7 mg/kg
